From ChEMBL document CHEMBL3421531, “Synthesis, and structure-activity relationship for C(4) and/or C(5) thienyl substituted pyrimidines, as a new family of antimycobacterial compounds” (Eur J Med Chem, 2015)
Converted amounts (≈) assume the structure as drawn.

Legend:
Mycolicibacter terrae = assay: Antimycobacterial activity against Mycobacterium terrae after 10 days by microbroth dilution method; assay type: functional; settings: 240 h
[1] = test system: Mycobacterium tuberculosis; assay: Antimycobacterial activity against Mycobacterium tuberculosis H37Rv after 10 days by microbroth dilution method; assay type: functional; settings: 240 h
Mycobacterium avium = assay: Antimycobacterial activity against Mycobacterium avium after 10 days by microbroth dilution method; assay type: functional; settings: 240 h
[2] = Toxicity in peroral dosed mouse after 14 days; assay type: organism-based; settings: in vivo, po

Row | Compound | MIC (Mycolicibacter terrae) | MIC [1] | MIC (Mycobacterium avium) | LD50 at 336 h [2]
1 | c1csc(-c2ccc(-c3ccncn3)s2)c1 | 51.2 µM (≈ 12.5 µg/mL) | 51.2 µM (≈ 12.5 µg/mL) | 51.2 µM (≈ 12.5 µg/mL) | –
2 | c1csc(-c2ccc(-c3ncncc3-c3ccsc3)s2)c1 | 19.1 µM (≈ 6.25 µg/mL) | 19.1 µM (≈ 6.25 µg/mL) | 19.1 µM (≈ 6.25 µg/mL) | –
3 | Brc1ccc(-c2ncncc2Br)s1 | 9.69 µM (≈ 3.1 µg/mL) | 9.69 µM (≈ 3.1 µg/mL) | 9.69 µM (≈ 3.1 µg/mL) | –
4 | c1csc(-c2ccc(-c3cncnc3)s2)c1 | 25.6 µM (≈ 6.25 µg/mL) | 25.6 µM (≈ 6.25 µg/mL) | 25.6 µM (≈ 6.25 µg/mL) | –
5 | Brc1ccc(-c2ncncc2-c2ccsc2)s1 | 19.3 µM (≈ 6.25 µg/mL) | 19.3 µM (≈ 6.25 µg/mL) | 19.3 µM (≈ 6.25 µg/mL) | –
6 | NC(=O)c1cnccn1 [PYRAZINAMIDE] | – | 102 µM (≈ 12.5 µg/mL) | – | –
7 | c1csc(-c2cncnc2-c2cccs2)c1 | 12.7 µM (≈ 3.1 µg/mL) | 12.7 µM (≈ 3.1 µg/mL) | 12.7 µM (≈ 3.1 µg/mL) | –
8 | c1csc(-c2ccc(-c3ncncc3-c3cccs3)s2)c1 | 0.92 µM (≈ 0.3 µg/mL) | 2.14 µM (≈ 0.699 µg/mL) | 0.92 µM (≈ 0.3 µg/mL) | 160 mg/kg
9 | c1ccc(-c2ccc(-c3ncncc3-c3cccs3)s2)cc1 | 39 µM (≈ 12.5 µg/mL) | 39 µM (≈ 12.5 µg/mL) | 39 µM (≈ 12.5 µg/mL) | –
10 | c1ccc(-c2ccc(-c3ncncc3-c3cc4ccccc4s3)s2)cc1 | 4.05 µM (≈ 1.5 µg/mL) | 8.37 µM (≈ 3.1 µg/mL) | 8.37 µM (≈ 3.1 µg/mL) | –
11 | c1csc(-c2ncncc2-c2csc3ccccc23)c1 | 42.5 µM (≈ 12.5 µg/mL) | 42.5 µM (≈ 12.5 µg/mL) | 42.5 µM (≈ 12.5 µg/mL) | –
12 | c1csc(-c2ncncc2-c2cc3ccccc3s2)c1 | 21.2 µM (≈ 6.25 µg/mL) | 21.2 µM (≈ 6.25 µg/mL) | 21.2 µM (≈ 6.25 µg/mL) | –
13 | c1csc(-c2ncncc2-c2ccsc2)c1 | 25.6 µM (≈ 6.25 µg/mL) | 25.6 µM (≈ 6.25 µg/mL) | 25.6 µM (≈ 6.25 µg/mL) | –
14 | c1ncc(-c2ccsc2)cn1 | 77.1 µM (≈ 12.5 µg/mL) | 77.1 µM (≈ 12.5 µg/mL) | 77.1 µM (≈ 12.5 µg/mL) | –
15 | Brc1ccc(-c2cncnc2)s1 | 51.8 µM (≈ 12.5 µg/mL) | 51.8 µM (≈ 12.5 µg/mL) | 51.8 µM (≈ 12.5 µg/mL) | –
16 | c1ccc(-c2ccc(-c3ncncc3-c3csc4ccccc34)s2)cc1 | 0.4 µM (≈ 0.148 µg/mL) | 0.4 µM (≈ 0.148 µg/mL) | 0.4 µM (≈ 0.148 µg/mL) | 45 mg/kg
17 | Brc1ccc(-c2ncncc2-c2csc3ccccc23)s1 | 4.02 µM (≈ 1.5 µg/mL) | 8.3 µM (≈ 3.1 µg/mL) | 8.3 µM (≈ 3.1 µg/mL) | –
18 | NNC(=O)c1ccncc1 [ISONIAZID] | 0.73 µM (≈ 0.1 µg/mL) | 0.73 µM (≈ 0.1 µg/mL) | 0.73 µM (≈ 0.1 µg/mL) | –
19 | Brc1ccc(-c2ncncc2-c2cccs2)s1 | 38.7 µM (≈ 12.5 µg/mL) | 38.7 µM (≈ 12.5 µg/mL) | 38.7 µM (≈ 12.5 µg/mL) | –
20 | c1ccc2c(-c3cncnc3)csc2c1 | 3.3 µM (≈ 0.701 µg/mL) | 7.07 µM (≈ 1.5 µg/mL) | 3.3 µM (≈ 0.701 µg/mL) | 700 mg/kg
21 | c1csc(-c2cncnc2)c1 | 19.1 µM (≈ 3.1 µg/mL) | 38.5 µM (≈ 6.25 µg/mL) | 19.1 µM (≈ 3.1 µg/mL) | –
22 | c1ccc(-c2ccc(-c3ncncc3-c3ccsc3)s2)cc1 | 19.5 µM (≈ 6.25 µg/mL) | 19.5 µM (≈ 6.25 µg/mL) | 19.5 µM (≈ 6.25 µg/mL) | –
23 | c1csc(-c2ccc(-c3ncncc3-c3cc4ccccc4s3)s2)c1 | 33.2 µM (≈ 12.5 µg/mL) | 33.2 µM (≈ 12.5 µg/mL) | 33.2 µM (≈ 12.5 µg/mL) | –
24 | c1ccc(-c2ccc(-c3cncnc3)s2)cc1 | 26.2 µM (≈ 6.25 µg/mL) | 26.2 µM (≈ 6.25 µg/mL) | 26.2 µM (≈ 6.25 µg/mL) | –
25 | c1ccc2sc(-c3cncnc3)cc2c1 | 58.9 µM (≈ 12.5 µg/mL) | 58.9 µM (≈ 12.5 µg/mL) | 58.9 µM (≈ 12.5 µg/mL) | –
26 | Brc1ccc(-c2ncncc2-c2cc3ccccc3s2)s1 | 33.5 µM (≈ 12.5 µg/mL) | 33.5 µM (≈ 12.5 µg/mL) | 33.5 µM (≈ 12.5 µg/mL) | –
27 | Brc1cncnc1 | 78.6 µM (≈ 12.5 µg/mL) | 78.6 µM (≈ 12.5 µg/mL) | 78.6 µM (≈ 12.5 µg/mL) | –
28 | c1csc(-c2ccc(-c3ncncc3-c3csc4ccccc34)s2)c1 | 0.4 µM (≈ 0.151 µg/mL) | 0.98 µM (≈ 0.369 µg/mL) | 0.98 µM (≈ 0.369 µg/mL) | 90 mg/kg
